Assay results reported in patent US20260345609A1, “METHODS FOR PROMOTING PERSISTENCE OF CELL THERAPY” (Legend Biotech Ireland Limited, priority 2022, published 2026).

What was measured:
[1] = system: host PBMC cells (HLA-A2+); experiment: Effect of combination of fludarabine, cyclophosphamide and MTX on host immune cells (HLA-A2+) in peripheral blood; assay type: in vivo, NCG mice; human host cells; details: day 13
Excerpt: pLVX-Puro vector purchased from Clontech was subjected to the digestion reaction of ClaI and EcoRI restriction enzymes. The CMV promoter was replaced with the human EF1α promoter (GenBank: J04617.1) to obtain the pLVX-hEF1α vector. The fusion gene sequence of SIV Nef_M116-P2A-DHFR L22F/F31S-IRES-CD8α SP-anti-BCMA antibody-CD8α Hinge-CD8αTM-4-1BB-ITAM010, hereinafter referred to as “LUCAR-BCMA” (SEQ ID NO: 6) was cloned into the expression plasmid pLVX-hEF1α to form the LUCAR-BCMA expression plasmid named as M1588. The anti-BCMA antibody contained herein has been disclosed in PCT/CN2020/136570. With reference to the virus vector production and primary T transduction in Example 1, LUCAR-BCMA cells were prepared.
Severely immunodeficient NCG mice were used for in vivo efficacy evaluation. The specific embodiment is as follows: at day-5.5 mice were intravenously inoculated with 20×10^6 PBMC cells (HLA-A2+) to construct host immune cells, and at day0 the mice were intravenously inoculated with 3×10^6 LUCAR-BCMA cells (HLA-A2−) as transplanted cells. The modeled mice were then treated with the following different combination of fludarabine, cyclophosphamide, and MTX to evaluate the inhibitory effect of the combination regimen on the host's immune system. “/” in Table 2 means no drug was administrated. The dose of fludarabine in each experimental group was 0.1623 mg/mice, the dose of cyclophosphamide was 1.623 mg/mice and the dose of MTX was 15.15 mg/kg (G3 and G4) or 75.45 mg/kg (G5 and G6). At day 13, the end point of the experiment, the peripheral blood white blood cells (WBC) of mice were measured. The peripheral blood cells of mice were resuspended in DPBS, and then 1 μL of FITC anti human CD45 (Biolegend, 304038) and 1 μL of PE anti human HLA-A2 (Biolegend, 343306) were added into the cell resuspension and incubated at 4° C. for 30 min. […] The proliferation of host PBMC cells in the peripheral blood of mice was evaluated, which reflected the effect of different combinations of drugs on host immunity in vivo.

[2] = system: LUCAR-20SD cells; experiment: Effect of MTX concentration on proliferation of LUCAR-20SD cells in vitro (AOPI counting); assay type: cell-based, human
Excerpt: pLVX-Puro vector purchased from Clontech was subjected to the digestion reaction with ClaI and EcoRI restriction enzymes, and the CMV promoter was replaced with a human EFlapromoter (GenBank: J04617.1) to obtain the pLVX-hEF1α vector. The gene of DHFR L22F/F31S (SEQ ID NO: 1) was inserted between SIV NEF M116 and CD20 CAR of LCAR-UL186S, which was disclosed in PCT patent applications No. PCT/CN2020/112181 and PCT/CN2020/112182. The fusion gene sequence of SIV Nef_M116-P2A-DHFR L22F/F31S-IRES-CD8α SP-CD20 scFv (Leu16)-CD8α Hinge-CD8α TM-4-1BB-ITAM010, hereinafter referred to as “LUCAR-20SD” (SEQ ID NO: 4) was cloned into the expression plasmid pLVX-hEF1α to form the LUCAR-20SD expression plasmid named as M1586. The recombinant expression plasmid M1586 was extracted, mixed with psPAX2 and pMD2. G helper plasmids in a certain proportion, and co-transfected into HEK 293T cells. After 60 h of transfection, the cell culture supernatant containing the virus was collected and centrifuged at 4° C. and 3000 rpm for 5 min. After the supernatant was filtered through a 0.45 μm filter, the 500 KD hollow fiber membrane column tangential flow technique was used to further concentrate to prepare a lentivirus concentrate, which was stored at-80° C. for later use.
50 mL of fresh peripheral blood of volunteers was extracted, and mixed with lymphocyte separation medium. The peripheral blood mononuclear cells (PBMC) were separated by density gradient centrifugation. The cells were labeled with magnetic beads using Pan T Cell Isolation Kit (Miltenyi Biotech), and T lymphocytes were isolated and purified, and then activated by CD3/CD28 magnetic beads. After culturing for 24 hours in a 37° C., 5% CO2 incubator, 5×10^6 activated T lymphocytes were infected with the lentiviral vector of LUCAR-20SD. […]
Cultured with the addition of methotrexate (MTX) at the concentrations of 0 μM, 0.01 μM, 0.05 μM, 0.1 μM, 1 μM, or 2 μM, the cell number of LUCAR-20SD cells at day0 day3 day6 day9, day 12, and the cell number of CAR-γδT cells at day0 day2 day5 day7 were counted by AOPI. […]

SMILES: CN(Cc1cnc2nc(N)nc(N)c2n1)c1ccc(C(=O)N[C@@H](CCC(=O)O)C(=O)O)cc1 [MTX, methotrexate]
- inhibitory effect of MTX on the host immune cells, dose relation ([1]; 15.15 mg/kg (G3) vs 75.45 mg/kg (G5)): dose-dependent
- inhibitory effect on proliferation of host cells ([1]; FC regimen or MTX alone): the inhibitory effect was limited
- number of host cells in the peripheral blood compared with G1 blank group ([1]; G2: FC, G3: 15.15 mg/kg MTX, G5: 75.45 mg/kg MTX): lower than that of the G1 blank group
- proliferation of LUCAR-20SD cells compared with 0 μM MTX ([2]; 0.01 μM to 1 μM MTX, day 12, p>0.05): no significant difference in cell proliferation
- proliferation of LUCAR-20SD cells compared with 0 μM MTX ([2]; 2 μM MTX, day 12, p<0.05): decreased significantly
- minimal effective concentration ([2]; Homo sapiens, 288 h, day 12, read-out: MTX concentration that affects the proliferation of LUCAR-20SD cells): ≥ 2 µM
